The source of these data is ChEMBL document CHEMBL3045350, “Inheritance of resistance to a new non-steroidal ecdysone agonist, fufenozide, in the diamondback moth, Plutella xylostella (Lepidoptera: Plutellidae)” (2010).

In brackets after ≈: the same amount, converted by molar mass.

What all share (assay type): functional
For experiment [1], the system named is Plutella xylostella. Put plainly: Resistant ratio, ratio of LC50 for F'1 generation of third-instar larvae of Plutella xylostella (diamondback moth) to LC50 for fufenozide-susceptible third-instar larvae of Plutella xylostella.
For experiment [2], the system named is Plutella xylostella. Description: Resistant ratio, ratio of LC50 for F2 generation of third-instar larvae of Plutella xylostella (diamondback moth) to LC50 for fufenozide-susceptible third-instar larvae of Plutella xylostella.
Experiment [3] deals with Plutella xylostella. Put plainly: Resistant ratio, ratio of LC50 for F1 pooled generation of third-instar larvae of Plutella xylostella (diamondback moth) to LC50 for fufenozide-susceptible third-instar larvae of Plutella xylostella.
In experiment [4] the test system is Plutella xylostella. Description: Insecticidal activity against F1 pooled generation of third-instar larvae of Plutella xylostella (diamondback moth) in cabbage leaf assessed as mortality after 96 hr by leaf dip method. Particulars: foliar.
Experiment [5] has as its system Plutella xylostella. Put plainly: Insecticidal activity against F2 generation of third-instar larvae of Plutella xylostella (diamondback moth) in cabbage leaf assessed as mortality after 96 hr by leaf dip method. The note with it: foliar.
Experiment [6] deals with Plutella xylostella. Description: Insecticidal activity against F'1 generation of third-instar larvae of Plutella xylostella (diamondback moth) in cabbage leaf assessed as mortality after 96 hr by leaf dip method. Particulars: foliar.
In experiment [7] the test system is Plutella xylostella. Description: Insecticidal activity against backcrossed third-instar larvae of Plutella xylostella (diamondback moth) in cabbage leaf assessed as mortality after 96 hr by leaf dip method. Particulars: foliar.
In experiment [8] the test system is Plutella xylostella. Description: Resistant ratio, ratio of LC50 for backcrossed third-instar larvae of Plutella xylostella (diamondback moth) to LC50 for fufenozide-susceptible third-instar larvae of Plutella xylostella.
For experiment [9], the system named is Plutella xylostella. Description: Insecticidal activity against fufenozide-susceptible third-instar larvae of Plutella xylostella (diamondback moth) in cabbage leaf assessed as mortality after 96 hr by leaf dip method. Particulars: foliar.
For experiment [10], the system named is Plutella xylostella. Description: Resistant ratio, ratio of LC50 for F1 generation of third-instar larvae of Plutella xylostella (diamondback moth) to LC50 for fufenozide-susceptible third-instar larvae of Plutella xylostella.
Experiment [11] has as its system Plutella xylostella. Description: Insecticidal activity against F1 generation of third-instar larvae of Plutella xylostella (diamondback moth) in cabbage leaf assessed as mortality after 96 hr by leaf dip method. The note with it: foliar.
Experiment [12] relates to Plutella xylostella. Description: Insecticidal activity against fufenozide-resistant 39th generation of third-instar larvae of Plutella xylostella (diamondback moth) in cabbage leaf assessed as mortality after 96 hr by leaf dip method. The note with it: foliar.

Consider `Cc1cc(C)cc(C(=O)N(NC(=O)c2ccc3c(c2C)OC(C)C3)C(C)(C)C)c1` (configuration not stated) [FUXIAN], for which the RatioLC50 in experiment [1] was 2.09; in experiment [2], 2.24; in [3], 2.61; in experiment [8], 2.33; in [10], 1.76. Further, the LC50 in experiment [4] came out at 5.82 mg/L (≈ 14.8 µM); in [5], 5 mg/L (≈ 12.7 µM); in experiment [6] it was 6.22 mg/L (≈ 15.8 µM); in experiment [7] it was 6.93 mg/L (≈ 17.6 µM); in [9], 2.23 mg/L (≈ 5.66 µM); in experiment [11], 5.22 mg/L (≈ 13.2 µM). Further, the LC50 in experiment [12] is 1480 µM.

A word on the LC50: it is the concentration that kills 50% of the test population.
